Measurements as given in patent US10752587B2, “Homobispiperidinyl derivatives as liver X receptor beta agonists, compositions and their use” (Merck Sharp & Dohme Corp., priority 2015, dated 2020).
Where two headings read alike, the source gives them in different places.

Assays:
[1] = target: T1, glutathione-S-transferase (GST) tagged LXRalpha LBD (ligand binding domain) (Homo sapiens, UniProt Q13133); test: LanthaScreen TR-FRET Liver X Receptor Coactivator Assay, co-activator recruitment to LXRalpha LBD; format: biochemical
T1 construct: purchased Invitrogen pv4655
T1 sequence (Q13133 209-447 limits assumed): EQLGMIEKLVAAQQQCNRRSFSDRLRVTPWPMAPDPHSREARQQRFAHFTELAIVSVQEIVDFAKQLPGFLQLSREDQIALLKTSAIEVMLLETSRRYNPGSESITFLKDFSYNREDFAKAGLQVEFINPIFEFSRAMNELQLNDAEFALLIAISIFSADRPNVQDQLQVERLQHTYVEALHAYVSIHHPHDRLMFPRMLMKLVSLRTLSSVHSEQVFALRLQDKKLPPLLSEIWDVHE
Summary of the method: (§1)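 GST-tagged LBD added to test compound, then fluorescein-labelled coactivator peptide plus terbium anti-GST antibody; incubated at room temperature, TR-FRET read. Potency given as inflection point and efficacy as Emax relative to reference dual agonist T0901317.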

[2] = target: T2, glutathione-S-transferase (GST) tagged LXRbeta LBD (ligand binding domain) (Homo sapiens, UniProt P55055); test: LanthaScreen TR-FRET Liver X Receptor Coactivator Assay, co-activator recruitment to LXRbeta LBD; format: biochemical
T2 construct: purchased Invitrogen pv4658.pps
T2 sequence (P55055 222-460 limits assumed): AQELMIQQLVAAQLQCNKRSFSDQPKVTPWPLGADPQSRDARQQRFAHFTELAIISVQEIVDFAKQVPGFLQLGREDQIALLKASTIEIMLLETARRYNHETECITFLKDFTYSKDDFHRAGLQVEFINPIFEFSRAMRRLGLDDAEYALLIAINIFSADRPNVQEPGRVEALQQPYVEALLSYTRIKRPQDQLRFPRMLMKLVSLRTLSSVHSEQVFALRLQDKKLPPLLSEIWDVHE
Summary of the method: as §1

[3] = efficacy at max dose, in relation to reference dual agonist T0901317, read-out: LXR alpha Activity @ max dose (%)
[4] = potency (Inflection Point, IP), co-activator recruitment to LXRalpha LBD, in relation to T0901317, read-out: LXR alpha IP
[5] = efficacy at max dose, in relation to reference dual agonist T0901317, read-out: LXR beta Activity @ max dose (%)
[6] = potency (Inflection Point, IP), co-activator recruitment to LXRbeta LBD, in relation to T0901317, read-out: LXR beta IP
[7] = potency (Inflection Point, IP), co-activator recruitment to LXRalpha LBD, in relation to T0901317
[8] = efficacy at max dose, in relation to reference dual agonist T0901317
[9] = co-activator recruitment to GST-LXRbeta LBD, TR-FRET, read-out: LXR beta IP (Inflection Point, potency)

| Compound | Emax [1, 3] | EC50 [1, 4] | Emax [2, 5] | EC50 [2, 6] | LXR alpha IP (nM) [1, 7] | also measured |
| --- | --- | --- | --- | --- | --- | --- |
| CC(C)c1cccc([C@@](O)(C(=O)N2CCC(CC3CCN(c4ccc(C(=O)N(C)C)c(Cl)c4)CC3)CC2)C(F)(F)F)c1 [Example 2-95, 2-chloro-N,N-dimethyl-4-{4-[(1-{(2R)-3,3,3-trifluoro-2-hydroxy-2-[3-(1-methylethyl)phenyl]propanoyl}piperidin-4-yl)methyl]piperidin-1-yl}benzamide] | 15% | 341 nM | 50% | 6 nM | – | – |
| CN(C)C(=O)c1ccc(N2CCC(CC3CCN(C(=O)[C@](O)(c4ccccc4)C(F)(F)F)C3)CC2)cc1Cl (stereo partly drawn) [Example 2-71, 2-chloro-N,N-dimethyl-4-[4-({1-[(2R)-3,3,3-trifluoro-2-hydroxy-2-phenyl-propanoyl]pyrrolidin-3-yl}methyl)piperidin-1-yl]benzamide] | 9% | – | 64% | 84 nM | NO IP | – |
| CN(C)C(=O)c1ccc(N2CCC(CC3CCN(C(=O)C(O)(c4ccsc4)C(F)(F)F)CC3)CC2)cc1Cl (centres unmarked) [Example 2-30, 2-chloro-N,N-dimethyl-4-(4-{[1-(3,3,3-trifluoro-2-hydroxy-2-thiophen-3-ylpropanoyl)piperidin-4-yl]methyl}piperidin-1-yl)benzamide] | 25% | 821 nM | 64% | 36 nM | – | – |
| CC(C)C(O)(C(=O)N1CCC(CC2CCN(c3ccc(C(=O)N(C)C)c(Cl)c3)CC2)CC1)c1ccccc1 (centres unmarked) [Example 2-109, 2-chloro-4-(4-{[1-(2-hydroxy-3-methyl-2-phenylbutanoyl)piperidin-4-yl]methyl}piperidin-1-yl)-N,N-dimethyl-benzamide] | 26% | 982 nM | 75% | 72 nM | – | – |
| CN(C)C(=O)c1ccc(N2CCC(CC3CCN(C(=O)[C@](O)(c4cc(F)cc(Cl)c4)C(F)(F)F)CC3)CC2)cc1Cl [Example 2-102, 2-chloro-4-[4-({1-[(2R)-2-(3-chloro-5-fluorophenyl)-3,3,3-trifluoro-2-hydroxy-propanoyl]piperidin-4-yl}methyl)piperidin-1-yl]-N,N-dimethyl-benzamide] | 36% | 29 nM | 81% | 2 nM | – | – |
| Cc1cc(N2CCC(CC3CCN(C(=O)[C@](O)(c4ccccc4)C(F)(F)F)CC3)CC2)ncc1C(=O)N(C)C [Example 7-3, N,N,4-trimethyl-6-[4-({1-[(2R)-3,3,3-trifluoro-2-hydroxy-2-phenylpropanoyl]piperidin-4-yl}methyl)piperidin-1-yl]pyridine-3-carboxamide] | 23% | 2180 nM | 71% | 153 nM | – | – |
| CN(C)C(=O)c1ccc(N2CCC(CC3CCN(C(=O)[C@](O)(c4ccccc4)C(F)(F)F)CC3)CC2)cc1Cl [Example 2-43, 2-chloro-N,N-dimethyl-4-[4-({1-[(2R)-3,3,3-trifluoro-2-hydroxy-2-phenyl-propanoyl]piperidin-4-yl}methyl)piperidin-1-yl]benzamide] | – | – | – | – | – | LXR alpha Activity @ max dose (%) [1, 8]: 16%; LXR beta Activity @ max dose (%) [2, 8]: 75% |
| CN(C)C(=O)c1ccc(N2CCC(CC3CCN(S(=O)(=O)c4ccc(Cl)s4)CC3)CC2)cc1Cl [Example 13-9, 2-chloro-4-[4-({1-[(5-chlorothiophen-2-yl)-sulfonyl]piperidin-4-yl}methyl)piperidin-1-yl]-N,N-dimethylbenzamide] | – | – | – | – | – | LXR alpha IP (Inflection Point, potency) ([1]; co-activator recruitment to GST-LXRalpha LBD, TR-FRET): NO IP; Emax ([1]; efficacy in relation to reference dual agonist T0901317, read-out: LXR alpha Activity @ max dose): 0%; EC50 [2, 9]: 230 nM; Emax ([2]; efficacy in relation to reference dual agonist T0901317, read-out: LXR beta Activity @ max dose): 20% |
| CN(C)C(=O)c1ccc(N2CCC(CC3CN(C(=O)[C@](O)(c4cc(Cl)cc(Cl)c4)C(F)(F)F)C3)CC2)cc1Cl [Example 2-67, 2-chloro-4-[4-({1-[(2R)-2-(3,5-dichloro-phenyl)-3,3,3-trifluoro-2-hydroxy-propanoyl]azetidin-3-yl}methyl)piperidin-1-yl]-N,N-dimethyl-benzamide] | 9% | – | 77% | 19 nM | NO IP | – |
| CN(C)C(=O)c1ccc(N2CCC(CC3CCN(C(=O)[C@](O)(c4cccc(OC(F)(F)F)c4)C(F)(F)F)CC3)CC2)cc1Cl [Example 2-91, 2-chloro-N,N-dimethyl-4-{4-[(1-{(2R)-3,3,3-trifluoro-2-hydroxy-2-[3-(trifluoro-methoxy)phenyl]propanoyl}piperidin-4-yl)methyl]piperidin-1-yl}benzamide] | 20% | 199 nM | 58% | 23 nM | – | – |
| CN(C)C(=O)c1ccc(N2CCC(CC3CN(C(=O)[C@](O)(c4cccc(OC(F)(F)F)c4)C(F)(F)F)C3)CC2)cc1Cl [Example 2-68, 2-chloro-N,N-dimethyl-4-{4-[(1-{(2R)-3,3,3-trifluoro-2-hydroxy-2-[3-(trifluoro-methoxy)phenyl]propanoyl}azetidin-3-yl)methyl]piperidin-1-yl}benzamide] | – | – | – | 22 nM | NO IP | LXR alpha Activity @ max dose (%) [1, 8]: 16%; LXR beta Activity @ max dose (%) [2, 8]: 63% |
| COc1cccc([C@@](O)(C(=O)N2CCC(CC3CN(c4ccc(C(=O)N(C)C)c(C)n4)C3)CC2)C(F)(F)F)c1 [Example 7-13, N,N,2-trimethyl-6-[3-({1-[(2R)-3,3,3-trifluoro-2-hydroxy-2-(3-methoxyphenyl)propanoyl]piperidin-4-yl}methyl)azetidin-1-yl]pyridine-3-carboxamide] | 4% | – | 72% | 1150 nM | NO IP | – |
| CN(C)C(=O)c1ccc(N2CCC(SC3CCN(C(=O)[C@](O)(c4cc(Cl)cc(Cl)c4)C(F)(F)F)CC3)CC2)nc1Cl [Example 9-3, 2-chloro-6-[4-({1-[(2R)-2-(3,5-dichlorophenyl)-3,3,3-trifluoro-2-hydroxypropanoyl]-piperidin-4-yl}-sulfanyl)piperidin-1-yl]-N,N-dimethyl-pyridine-3-carboxamide] | 10% | – | 63% | 14 nM | NO IP | – |
| COc1cc(Cl)cc(C(O)(C(=O)N2CCC(CC3CCN(c4ccc(C(=O)N(C)C)c(Cl)n4)CC3)CC2)C(F)(F)F)c1 (centres unmarked) [Example 7-105, 2-chloro-6-[4-({1-[2-(3-chloro-5-methoxyphenyl)-3,3,3-trifluoro-2-hydroxypropanoyl]piperidin-4-yl}methyl)piperidin-1-yl]-N,N-dimethylpyridine-3-carboxamide] | 0% | – | 30% | 76 nM | NO IP | – |
| CN(C)C(=O)c1ccc(N2CCC(OC3CCN(C(=O)[C@](O)(c4cc(Cl)cc(Cl)c4)C(F)(F)F)CC3)CC2)cc1Cl [Example 2-46, 2-chloro-4-[4-({1-[(2R)-2-(3,5-dichloro-phenyl)-3,3,3-trifluoro-2-hydroxy-propanoyl]piperidin-4-yl}oxy)piperidin-1-yl]-N,N-dimethyl-benzamide] | 31% | 216 nM | 102% | 9 nM | – | – |
| CN(C)C(=O)c1ccc(N2CCC(CC3CN(S(=O)(=O)c4ccccc4)C3)CC2)cc1Cl [Example 13-1, 2-chloro-N,N-dimethyl-4-(4-((1-(phenylsulfonyl)azetidin-3-yl)methyl)piperidin-1-yl)benzamide] | – | – | – | – | – | EC50 ([1]; co-activator recruitment to GST-LXRalpha LBD, TR-FRET, read-out: LXR alpha IP (Inflection Point, potency)): 2480 nM; Emax ([1]; read-out: LXR alpha Activity @ max dose): 37%; EC50 [2, 9]: 61 nM; Emax ([2]; read-out: LXR beta Activity @ max dose): 73% |
